What was measured:
[1] = Inhibition of P38; set-up: species or system Homo sapiens
[2] = molecular target: Ribosomal protein S6 kinase beta-1 (Homo sapiens, UniProt P23443); assay: Inhibition of S6K
[3] = molecular target: RAC-alpha serine/threonine-protein kinase (Homo sapiens, UniProt P31749); assay: Inhibition of AKT
[4] = Inhibition of CAMII; set-up: species or system Homo sapiens
[5] = molecular target: T1, Serine/threonine-protein kinase Sgk1 (Homo sapiens, UniProt O00141); assay: Inhibition of SGK1
T1 sequence (O00141 whole entry): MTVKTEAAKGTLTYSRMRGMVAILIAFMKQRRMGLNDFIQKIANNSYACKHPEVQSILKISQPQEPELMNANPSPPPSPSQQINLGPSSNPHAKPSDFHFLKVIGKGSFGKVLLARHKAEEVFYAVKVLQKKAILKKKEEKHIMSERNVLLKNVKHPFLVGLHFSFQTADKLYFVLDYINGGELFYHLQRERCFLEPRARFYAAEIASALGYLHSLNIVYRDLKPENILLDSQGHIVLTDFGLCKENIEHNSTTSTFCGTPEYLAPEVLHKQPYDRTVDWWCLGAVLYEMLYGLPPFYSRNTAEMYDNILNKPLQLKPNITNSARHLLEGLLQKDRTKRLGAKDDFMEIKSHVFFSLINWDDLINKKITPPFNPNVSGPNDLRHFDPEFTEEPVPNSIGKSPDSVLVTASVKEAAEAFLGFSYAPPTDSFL

[6] = Growth inhibition of M49-5 cells; assay type: functional, cell-based; conditions: Homo sapiens
[7] = Growth inhibition of PC-3mm2 cells; assay type: functional, cell-based; conditions: Homo sapiens, PC3MM2
K562 = assay: Growth inhibition of K562 cells; assay type: functional, cell-based; conditions: Homo sapiens
SW-620 = assay: Growth inhibition of SW620 cells; assay type: functional, cell-based; conditions: Homo sapiens
[8] = Inhibition of MEK; set-up: species or system Homo sapiens
MDA-MB-468 = assay: Growth inhibition of MDA-MB-468 cells; assay type: functional, cell-based; conditions: Homo sapiens
[9] = Inhibition of TPL2; set-up: species or system Homo sapiens
[10] = molecular target: MAP kinase-activated protein kinase 2 (Homo sapiens, UniProt P49137); assay: Inhibition of MK2
[11] = molecular target: Cyclin-dependent kinase 4 (Homo sapiens, UniProt P11802); assay: Inhibition of CDK4
[12] = molecular target: Proto-oncogene tyrosine-protein kinase Src (Homo sapiens, UniProt P12931); assay: Inhibition of Src
[13] = molecular target: Inhibitor of NF-kappa-B kinase (IKK) (Homo sapiens, UniProt O14920+O15111+Q9Y6K9); assay: Inhibition of IKK; assay type: protein-complex assay
DU-145 = assay: Growth inhibition of DU145 cells; assay type: functional, cell-based; conditions: Homo sapiens
HCT-116 = assay: Growth inhibition of HCT116 cells; assay type: functional, cell-based; conditions: Homo sapiens
[14] = Inhibition of PKA; set-up: species or system Homo sapiens
[15] = molecular target: T2, 3-phosphoinositide-dependent protein kinase 1 (Homo sapiens, UniProt O15530); assay: Inhibition of PDK1
T2 sequence (O15530 whole entry): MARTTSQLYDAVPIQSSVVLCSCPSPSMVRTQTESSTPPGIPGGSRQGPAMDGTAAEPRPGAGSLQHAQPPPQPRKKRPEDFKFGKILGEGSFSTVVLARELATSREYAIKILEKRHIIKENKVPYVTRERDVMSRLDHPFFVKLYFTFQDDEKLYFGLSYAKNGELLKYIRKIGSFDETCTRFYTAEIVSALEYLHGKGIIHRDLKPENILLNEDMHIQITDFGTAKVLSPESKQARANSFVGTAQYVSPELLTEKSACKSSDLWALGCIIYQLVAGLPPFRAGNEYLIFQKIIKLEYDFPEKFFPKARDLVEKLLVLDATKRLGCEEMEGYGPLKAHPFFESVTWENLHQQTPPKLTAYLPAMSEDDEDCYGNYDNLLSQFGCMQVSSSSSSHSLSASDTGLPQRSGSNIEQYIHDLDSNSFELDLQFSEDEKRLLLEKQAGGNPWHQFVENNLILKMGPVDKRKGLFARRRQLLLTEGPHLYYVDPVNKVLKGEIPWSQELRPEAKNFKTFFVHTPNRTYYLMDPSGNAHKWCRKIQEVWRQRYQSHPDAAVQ

MAP kinase-activated protein kinase 2, sequence (P49137 whole entry): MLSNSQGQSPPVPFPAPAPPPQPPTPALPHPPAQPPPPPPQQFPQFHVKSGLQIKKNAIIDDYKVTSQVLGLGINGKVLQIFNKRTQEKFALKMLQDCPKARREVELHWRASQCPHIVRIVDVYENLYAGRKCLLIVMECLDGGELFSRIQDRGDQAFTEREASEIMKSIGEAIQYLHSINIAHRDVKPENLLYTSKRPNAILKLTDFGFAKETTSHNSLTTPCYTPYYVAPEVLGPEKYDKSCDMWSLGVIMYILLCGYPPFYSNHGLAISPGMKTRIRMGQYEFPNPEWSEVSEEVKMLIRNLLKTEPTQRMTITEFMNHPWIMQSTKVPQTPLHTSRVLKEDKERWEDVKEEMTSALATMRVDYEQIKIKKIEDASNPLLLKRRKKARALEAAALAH
Proto-oncogene tyrosine-protein kinase Src, sequence (P12931 2-536 limits assumed): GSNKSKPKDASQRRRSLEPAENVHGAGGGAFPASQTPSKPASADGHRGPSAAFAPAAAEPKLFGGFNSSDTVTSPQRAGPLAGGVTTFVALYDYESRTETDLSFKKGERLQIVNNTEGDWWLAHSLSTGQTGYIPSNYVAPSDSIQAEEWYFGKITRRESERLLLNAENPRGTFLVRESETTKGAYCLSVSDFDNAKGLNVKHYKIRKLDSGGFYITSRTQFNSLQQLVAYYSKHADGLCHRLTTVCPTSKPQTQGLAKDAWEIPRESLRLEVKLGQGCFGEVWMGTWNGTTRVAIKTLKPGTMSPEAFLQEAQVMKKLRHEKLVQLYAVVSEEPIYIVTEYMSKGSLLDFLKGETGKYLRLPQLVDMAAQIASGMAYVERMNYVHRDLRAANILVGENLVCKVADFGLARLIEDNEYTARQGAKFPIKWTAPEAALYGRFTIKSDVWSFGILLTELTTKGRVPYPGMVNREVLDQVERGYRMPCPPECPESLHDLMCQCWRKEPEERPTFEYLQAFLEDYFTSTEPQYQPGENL
Ribosomal protein S6 kinase beta-1, sequence (P23443 whole entry): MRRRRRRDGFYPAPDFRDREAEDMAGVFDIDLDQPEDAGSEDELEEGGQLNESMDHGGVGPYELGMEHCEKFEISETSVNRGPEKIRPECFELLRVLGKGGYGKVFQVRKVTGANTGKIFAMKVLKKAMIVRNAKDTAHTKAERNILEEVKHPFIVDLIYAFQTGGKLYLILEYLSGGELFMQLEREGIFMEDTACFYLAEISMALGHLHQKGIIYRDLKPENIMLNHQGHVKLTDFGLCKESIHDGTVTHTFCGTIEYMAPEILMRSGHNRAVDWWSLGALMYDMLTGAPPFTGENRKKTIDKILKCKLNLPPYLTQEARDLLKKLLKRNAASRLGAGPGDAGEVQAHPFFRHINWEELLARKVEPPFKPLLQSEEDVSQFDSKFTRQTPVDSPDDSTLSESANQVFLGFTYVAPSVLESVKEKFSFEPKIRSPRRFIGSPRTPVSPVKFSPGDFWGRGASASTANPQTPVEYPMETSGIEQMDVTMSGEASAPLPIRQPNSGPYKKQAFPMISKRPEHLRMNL
RAC-alpha serine/threonine-protein kinase, sequence (P31749 whole entry): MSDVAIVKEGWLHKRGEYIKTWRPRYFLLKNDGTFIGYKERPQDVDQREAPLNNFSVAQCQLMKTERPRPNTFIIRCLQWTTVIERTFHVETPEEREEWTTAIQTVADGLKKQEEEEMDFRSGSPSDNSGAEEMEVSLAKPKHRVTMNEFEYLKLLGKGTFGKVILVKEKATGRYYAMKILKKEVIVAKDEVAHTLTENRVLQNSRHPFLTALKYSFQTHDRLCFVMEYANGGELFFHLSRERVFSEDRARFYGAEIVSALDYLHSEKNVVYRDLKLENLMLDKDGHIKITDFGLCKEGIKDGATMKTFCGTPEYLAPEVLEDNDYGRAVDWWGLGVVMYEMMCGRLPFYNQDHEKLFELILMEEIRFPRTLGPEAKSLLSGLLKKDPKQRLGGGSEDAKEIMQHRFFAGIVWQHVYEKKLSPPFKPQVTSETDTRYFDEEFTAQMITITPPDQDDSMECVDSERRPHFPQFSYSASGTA
Inhibitor of NF-kappa-B kinase (IKK), sequence (O14920 whole entry): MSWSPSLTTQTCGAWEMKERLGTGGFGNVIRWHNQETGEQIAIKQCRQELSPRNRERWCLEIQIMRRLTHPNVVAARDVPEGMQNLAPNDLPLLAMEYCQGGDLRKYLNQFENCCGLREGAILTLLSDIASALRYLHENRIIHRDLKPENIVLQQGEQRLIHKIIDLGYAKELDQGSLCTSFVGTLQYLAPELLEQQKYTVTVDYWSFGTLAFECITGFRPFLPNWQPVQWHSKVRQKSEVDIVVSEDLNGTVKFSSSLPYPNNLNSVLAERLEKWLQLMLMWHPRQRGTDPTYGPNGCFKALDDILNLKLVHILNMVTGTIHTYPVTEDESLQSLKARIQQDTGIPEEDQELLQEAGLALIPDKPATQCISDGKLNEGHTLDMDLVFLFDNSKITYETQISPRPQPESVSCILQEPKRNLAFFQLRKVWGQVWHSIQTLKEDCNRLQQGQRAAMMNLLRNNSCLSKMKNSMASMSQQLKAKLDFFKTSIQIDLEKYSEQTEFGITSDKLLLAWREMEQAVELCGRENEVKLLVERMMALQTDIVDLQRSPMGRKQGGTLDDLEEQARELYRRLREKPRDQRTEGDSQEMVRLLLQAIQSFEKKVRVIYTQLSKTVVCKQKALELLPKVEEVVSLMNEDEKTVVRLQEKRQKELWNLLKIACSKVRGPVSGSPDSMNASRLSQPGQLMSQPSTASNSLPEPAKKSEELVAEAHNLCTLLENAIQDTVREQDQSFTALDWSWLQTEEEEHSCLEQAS
Inhibitor of NF-kappa-B kinase (IKK), sequence (O15111 whole entry): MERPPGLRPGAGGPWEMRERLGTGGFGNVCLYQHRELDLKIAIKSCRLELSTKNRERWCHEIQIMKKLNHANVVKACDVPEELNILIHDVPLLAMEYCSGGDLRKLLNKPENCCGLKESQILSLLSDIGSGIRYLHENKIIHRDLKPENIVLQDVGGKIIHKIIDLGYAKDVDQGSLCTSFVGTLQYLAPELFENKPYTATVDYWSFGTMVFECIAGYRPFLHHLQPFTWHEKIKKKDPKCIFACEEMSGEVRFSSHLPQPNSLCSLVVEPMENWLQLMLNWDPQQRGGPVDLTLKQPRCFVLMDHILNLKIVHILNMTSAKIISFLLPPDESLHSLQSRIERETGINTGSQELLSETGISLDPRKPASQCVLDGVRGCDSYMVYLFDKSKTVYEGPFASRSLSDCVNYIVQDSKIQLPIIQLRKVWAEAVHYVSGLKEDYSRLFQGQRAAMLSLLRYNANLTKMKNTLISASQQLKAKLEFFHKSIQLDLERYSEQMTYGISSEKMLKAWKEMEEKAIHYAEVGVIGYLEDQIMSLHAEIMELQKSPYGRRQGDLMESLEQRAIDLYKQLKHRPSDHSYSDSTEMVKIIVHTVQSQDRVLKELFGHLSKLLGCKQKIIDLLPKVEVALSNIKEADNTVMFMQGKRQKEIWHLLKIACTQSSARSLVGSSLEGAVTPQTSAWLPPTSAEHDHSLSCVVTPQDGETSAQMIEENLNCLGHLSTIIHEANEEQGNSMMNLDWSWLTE
Inhibitor of NF-kappa-B kinase (IKK), sequence (Q9Y6K9 whole entry): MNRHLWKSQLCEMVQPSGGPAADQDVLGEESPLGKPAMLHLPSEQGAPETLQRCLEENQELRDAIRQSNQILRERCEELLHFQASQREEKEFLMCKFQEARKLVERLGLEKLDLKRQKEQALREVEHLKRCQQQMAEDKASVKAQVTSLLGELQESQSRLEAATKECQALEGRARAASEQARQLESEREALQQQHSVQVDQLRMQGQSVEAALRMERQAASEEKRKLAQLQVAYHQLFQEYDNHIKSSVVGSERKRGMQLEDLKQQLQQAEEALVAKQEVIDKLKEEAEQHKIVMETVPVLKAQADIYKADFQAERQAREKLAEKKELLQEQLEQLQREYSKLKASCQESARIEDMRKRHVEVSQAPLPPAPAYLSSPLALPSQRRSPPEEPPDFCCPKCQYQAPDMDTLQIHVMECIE
Cyclin-dependent kinase 4, sequence (P11802 whole entry): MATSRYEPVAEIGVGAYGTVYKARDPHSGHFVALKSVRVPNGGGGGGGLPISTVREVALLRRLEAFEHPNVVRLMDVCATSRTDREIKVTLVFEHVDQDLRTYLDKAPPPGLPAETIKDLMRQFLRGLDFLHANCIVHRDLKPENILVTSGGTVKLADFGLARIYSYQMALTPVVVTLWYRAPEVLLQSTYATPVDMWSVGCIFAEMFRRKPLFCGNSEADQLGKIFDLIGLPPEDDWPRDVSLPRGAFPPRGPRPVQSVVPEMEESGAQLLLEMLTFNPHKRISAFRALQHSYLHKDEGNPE

**Q.** For `COc1cc2ncc3c(N)nc4c(C)c(N)ccc4c3c2cc1OC`, which IC50 [1] is on record?
**A.** > 10 µM

**Q.** What about the IC50 [2] of the same compound?
**A.** > 10 µM

**Q.** And the IC50 [3]?
**A.** > 10 µM

**Q.** And the IC50 [4]?
**A.** > 10 µM

**Q.** And the IC50 [5]?
**A.** > 10 µM

**Q.** And the IC50 [6]?
**A.** 0.35 µM

**Q.** And the IC50 [7]?
**A.** 4.3 µM

**Q.** And the IC50 (K562)?
**A.** 0.48 µM

**Q.** And the IC50 (SW-620)?
**A.** 3.9 µM

**Q.** What about the IC50 [8] of the same compound?
**A.** > 10 µM

**Q.** What about the IC50 (MDA-MB-468) of the same compound?
**A.** 1.55 µM

**Q.** And the IC50 [9]?
**A.** > 10 µM

**Q.** What about the IC50 [10] of the same compound?
**A.** > 10 µM

**Q.** What about the IC50 [11] of the same compound?
**A.** > 10 µM

**Q.** What about the IC50 [12] of the same compound?
**A.** > 10 µM

**Q.** What about the IC50 [13] of the same compound?
**A.** > 10 µM

**Q.** And the IC50 (DU-145)?
**A.** 2.53 µM

**Q.** And the IC50 (HCT-116)?
**A.** 3.6 µM

**Q.** And the IC50 [14]?
**A.** > 10 µM

**Q.** Which IC50 [15] does the source give for `COc1cc2ncc3cnc4ccccc4c3c2cc1OC` here?
**A.** 7.45 µM

**Q.** With `COc1cc2ncc3c(N)nc4c(C)c(Cl)ccc4c3c2cc1OC` as the compound, how does the IC50 [15] read?
**A.** 2.12 µM

**Q.** With `COc1cc2c(cc1NCCN(C)C)ncc1c(N)nc3c(C)c(N)ccc3c12` as the compound, how does the IC50 [15] read?
**A.** 2.49 µM

**Q.** Which IC50 [15] does the source give for `COc1cc2c(cc1F)ncc1c(N)nc3c(C)c(N)ccc3c12` here?
**A.** 0.58 µM

**Q.** Which IC50 [15] does the source give for `COc1cc2c(cc1OCCN1CCOCC1)ncc1c(N)nc3c(C)c(N)ccc3c12` here?
**A.** 0.06 µM

**Q.** With `COc1cc2ncc3c(N)nc4c(C)c(O)ccc4c3c2cc1OC` as the compound, how does the IC50 [15] read?
**A.** 0.04 µM

**Q.** Which IC50 [15] does the source give for `COc1cc2c(cc1OCCCN(C)C)ncc1c(N)nc3c(C)c(N)ccc3c12` here?
**A.** 0.2 µM

From ChEMBL document CHEMBL1138235, “Discovery of dibenzo[c,f][2,7]naphthyridines as potent and selective 3-phosphoinositide-dependent kinase-1 inhibitors” (J Med Chem, 2007)
